Read-outs that look alike come from different tables or passages of the source.
How the values were obtained:
human PLK4 = molecular target: T1, human PLK4 (Homo sapiens, UniProt O00444); assay: PLK4 Inhibition Assay (indirect ELISA); format: biochemical
T1 construct: amino terminal GST fusion of residues 1-391 of human PLK4; made in house; host or cells: E. coli
T1 sequence (O00444 1-391): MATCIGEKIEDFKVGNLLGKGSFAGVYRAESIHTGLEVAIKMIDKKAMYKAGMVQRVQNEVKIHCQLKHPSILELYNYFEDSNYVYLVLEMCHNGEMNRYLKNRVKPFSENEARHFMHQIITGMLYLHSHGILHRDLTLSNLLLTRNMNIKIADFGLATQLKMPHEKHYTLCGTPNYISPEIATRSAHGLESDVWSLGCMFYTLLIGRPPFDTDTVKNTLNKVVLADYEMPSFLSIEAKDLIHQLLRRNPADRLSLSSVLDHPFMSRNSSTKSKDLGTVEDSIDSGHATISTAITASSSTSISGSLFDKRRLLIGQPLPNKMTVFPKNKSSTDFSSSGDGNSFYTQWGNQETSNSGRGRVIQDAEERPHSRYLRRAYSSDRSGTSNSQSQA
Method: The protein was purified from clarified cell extracts after induction at 15° C. overnight using glutathione sepharose, gel permeation chromatography, and ion exchange (Resource Q). The resulting protein was dephosphorylated with lambda phosphatase (NEB cat# P0753), and resolved from the phosphatase using gluthione sepharose. The dephosphorylated GST-PLK4 was stored in aliquots at −80° C. until use.
PLK4 activity was measured using an indirect ELISA detection system. […] The colourimetric reaction was allowed to continue for 5 minutes, followed by addition of stop solution (0.5 N sulphuric acid), and quantified by detection at 450 nm with either a monochromatic or filter based plate reader (Molecular Devices M5 or Beckman DTX880, respectively).
Compounds were pre-incubated in the presence of enzyme for 15 minutes prior to addition of ATP and the activity remaining quantified using the above described activity assay. […] The IC50 value was determined using a non-linear 4 point logistic curve fit (XLfit4, IDBS) with the formula; (A+(B/(1+((x/C){grave over ( )}D)))), where A=background value, B=range, C=inflection point, D=curve fit parameter.

Aurora B = molecular target: T2, Aurora B (Homo sapiens, UniProt Q96GD4); assay: Aurora B Inhibition Assay (Z-Lyte); format: biochemical; settings: 128 μM ATP; read-out: Aurora B IC50 Ranges
T2 construct: purchased Invitrogen PV3970
Method: Aurora B inhibition was determined using the Z-Lyte assay kit from Invitrogen. […] The % inhibition values were determined according to the manufacturer's directions and IC50 values were obtained using a non-linear 4 point logistic curve fit (XLfit4, IDBS)

[1] = test system: HCC1954 basal breast cancer cell line; assay: Cell growth inhibition, Sulforhodamine B assay (SRB); format: cell-based; settings: Homo sapiens, 5 days culture, SRB
Method: (§1) The cells were cultured for 5 days before the Sulforhodamine B assay (SRB) was performed to determine the compound's cell growth inhibition activity.
(§2) Sulforhodamine B (purchased from Sigma, Oakville, ON, Canada) is a water-soluble dye that binds to the basic amino acids of the cellular proteins. Thus, colorimetric measurement of the bound dye provides an estimate of the total protein mass that is related to the cell number. the cells are fixed in situ by gently aspirating off the culture media and adding 50 μl ice cold 10% Trichloroacetic Acid (TCA) per well and incubate at 4° C. for 30-60 min, The plates are washed with water five times and allowed to air dry for 5 min. […] Following staining, plates are washed four times with 1% acetic acid to remove unbound dye and then allowed to air dry for 5 min. […] Absorbance is read at 570 nm.
(§3) The percentage (%) of relative growth inhibition was calculated by comparing to DMSO treated only cells (100%). GI50's were determined for compounds with cytotoxic activity. The GI50 was calculated using GraphPad PRISM software (GraphPad Software, Inc., San Diego, Calif., USA).

[2] = test system: MCF-7 luminal breast cancer cell line; assay: as above; format: cell-based; settings: Homo sapiens, MCF7, 120 h, read-out: Cell Line GI50 Range MCF-7
Method: as §1, §2, §3

[3] = test system: A549 lung cancer cell line; assay: as above; format: cell-based; settings: Homo sapiens, read-out: Cell Line GI50 Range A-549
Method: as §1, §2, §3

[4] = test system: SW620 colon cancer cell line; assay: as above; format: cell-based; settings: Homo sapiens, SW-620, 120 h, read-out: Cell Line GI50 Range SW-620
Method: as §1, §2, §3

[5] = test system: MDA-MB-468 basal breast cancer cell line; assay: as above; format: cell-based; settings: Homo sapiens, 5 days culture, SRB
Method: as §1, §2, §3

Aurora A = molecular target: T3, Aurora A (Homo sapiens, UniProt O14965); assay: Aurora A Inhibition Assay (Z-Lyte); format: biochemical; settings: 1 μM compound; 20 μM ATP; read-out: Aurora A relative inhibition percentage at a dose of 1 μM
T3 construct: purchased Invitrogen PV3612
T3 sequence (O14965 1-403): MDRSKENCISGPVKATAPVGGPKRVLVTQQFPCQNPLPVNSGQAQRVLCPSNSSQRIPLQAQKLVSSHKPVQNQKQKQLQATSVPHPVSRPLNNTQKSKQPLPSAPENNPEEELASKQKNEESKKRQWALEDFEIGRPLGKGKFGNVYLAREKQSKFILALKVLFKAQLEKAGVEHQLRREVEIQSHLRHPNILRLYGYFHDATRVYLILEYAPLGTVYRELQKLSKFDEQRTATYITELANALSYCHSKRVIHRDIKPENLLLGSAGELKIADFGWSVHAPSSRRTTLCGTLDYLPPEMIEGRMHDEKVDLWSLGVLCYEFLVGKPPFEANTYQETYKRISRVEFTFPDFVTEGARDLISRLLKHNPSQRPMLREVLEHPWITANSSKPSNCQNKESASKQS
Method: Aurora A inhibition was determined using the Z-Lyte assay kit from Invitrogen. The assay was performed using the recommended manufacturer's instructions with 20 μM ATP and 12 nM Aurora A (Invitrogen cat # PV3612). The % inhibition values were determined according to the manufacturer's directions and IC50 values were obtained using a non-linear 4 point logistic curve fit (XLfit4, IDBS)

HUV-EC-C cells = assay: In Vitro Angiogenesis Assay (tube formation); settings: HUV-EC-C cells on ECMatrix, 4 hr; FIGS. 1 and 2
AMPKalpha = assay: CEREP HTRF kinase selectivity assay; format: biochemical, human
Method: The inhibitory activity of selected compounds of the invention was evaluated against a panel of 45 different kinase enzymes by CEREP, France. The assays were performed using standard HTRF assay methods as documented by CEREP against the human orthologues of Ab1 kinase, Akt1/PKBa, AMPKa, BMX kinase (Etk), Brk, CaMK2a, CaMK4, CDC2/CDK1 (cycB), CHK1, CHK2, c-Met kinase, CSK, EphB4 kinase, ERKI, ERK2 (P42mapk), FGFR2 kinase, FGFR4 kinase, FLT-1 kinase (VEGFR1), FLT-3 kinase, Fyn kinase, 1GF1R kinase, IRK (InsR), JNK 2, KDR kinase (VEGFR2), Lck kinase, Lyn kinase, MAPKAPK2, MEK1/MAP2K1, p38a kinase, p38d kinase, p38 g kinase, PDGFRb kinase, PDKI, PKA, PKCa, PKCb1, PKCb2, PKCg, Ret kinase, ROCK2, RSK2, Src kinase, Syk, and TRKA (Table 3). The % Inhibition was determined by the formula; % Inhibition=100×(1−(experimental value−background value)/(high activity control−background value)).

[6] = 15 μM ATP, read-out: PLK4 IC50 Ranges
[7] = HCC1954, 120 h, HCC1954 basal breast cancer cell line, read-out: Cell Line GI50 Range HCC-1954
[8] = MCF-7 luminal breast cancer cell line, 5 days culture, SRB
[9] = 120 h, A549 lung cancer cell line, 5 days culture, SRB
[10] = SW620 colon cancer cell line, 5 days culture, SRB
[11] = 120 h, MDA-MB-468 basal breast cancer cell line, read-out: Cell Line GI50 Range MDA-MB-468
[12] = 120 h, HCC1954 basal breast cancer cell line, read-out: Cell Line GI50 Range HCC-1954
[13] = HCC1954, 120 h, read-out: Cell Line GI50 Range HCC-1954, HCC1954 basal breast cancer cell line
[14] = MDA-MB-468, 120 h, read-out: Cell Line GI50 Range MDA-MB-468, MDA-MB-468 basal breast cancer cell line

T2 sequence (Q96GD4 whole entry): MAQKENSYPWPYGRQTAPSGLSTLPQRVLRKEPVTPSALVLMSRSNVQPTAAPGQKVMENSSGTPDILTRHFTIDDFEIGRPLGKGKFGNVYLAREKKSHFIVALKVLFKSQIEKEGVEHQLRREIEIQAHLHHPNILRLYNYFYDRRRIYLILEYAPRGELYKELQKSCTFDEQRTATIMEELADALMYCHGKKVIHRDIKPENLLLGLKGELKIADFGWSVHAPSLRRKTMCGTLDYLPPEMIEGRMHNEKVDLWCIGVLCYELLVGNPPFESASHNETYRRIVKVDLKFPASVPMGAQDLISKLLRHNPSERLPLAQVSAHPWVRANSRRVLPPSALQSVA

SMILES | IC50 (human PLK4; [6]) | IC50 (Aurora B) | GI50 [2, 8] | GI50 [3, 9] | GI50 [4, 10] | GI50 [5, 11] | other results
COc1ccc2c(c1)[C@@]1(C[C@@H]1c1ccc3c(-c4ccc(N5CCNCC5)cc4)n[nH]c3c1)C(=O)N2 (racemic) [Example A48, (1R*,2S*)-5′-methoxy-2-(3-(4-(piperazin-1-yl)phenyl)-1H-indazol-6-yl)spiro[cyclopropane-1,3′-indolin]-2′-one 2,2,2-trifluoroacetate] |  | < 100 nM |  |  |  |  | inhibition at 1 µM (Aurora A): < 50%; IC50 (human PLK4): < 100 nM; GI50 [1, 13]: 1000 to 10000 nM; GI50 [2]: < 100 nM; GI50 ([3]; A549, 120 h): < 100 nM; GI50 [4]: 1000 to 10000 nM; GI50 [5, 14]: < 100 nM
COc1ccc2c(c1)[C@]1(C[C@H]1c1ccc3c(-c4ccc(N5CCN(C)CC5)nc4)n[nH]c3c1)C(=O)N2 (relative stereo) [Example A13, (1R*,2S*)-5′-Methoxy-2-(3-(6-(4-methylpiperazin-1-yl)pyridin-3-yl)-1H-indazol-6-yl)spiro[cycloropane-1,3′-indolin]-2′-one] |  |  |  |  |  |  | anti-angiogenic effect (tube formation, % of control tube count) (HUV-EC-C cells): anti-agiogenic effects at submicromolar concentrations; % Inhibition @ 10 uM (AMPKalpha): 8%
COc1ccc2c(c1)[C@]1(C[C@H]1c1ccc3c(/C=C/c4cc(F)c(CN(C)C)c(F)c4)n[nH]c3c1)C(=O)N2 (relative stereo) [Example A215, (1R*,2 S*)-(E)-2-(3-(4-((dimethylamino)methyl)-3,5-difluorostyryl)-1H-indazol-6-yl)-5′-methoxyspiro[cyclopropane-1,3′-indolin]-2′-one 2,2,2-trifluoro acetate] | < 100 nM | < 100 nM |  |  |  |  | 
COc1ccc2c(c1)[C@]1(C[C@H]1c1ccc3c(-c4ccc(N5CCNCC5)cc4)n[nH]c3c1)C(=O)N2 [Example A49, (1R,2S)-5′-methoxy-2-(3-(4-(piperazin-1-yl)phenyl)-1H-indazol-6-yl)spiro[cyclopropane-1,3′-indolin]-2′-oneone 2,2,2-trifluoroacetate] |  | < 100 nM |  |  |  |  | inhibition at 1 µM (Aurora A): < 50%; IC50 (human PLK4): < 100 nM; GI50 [1, 13]: 1000 to 10000 nM; GI50 [2]: < 100 nM; GI50 ([3]; A549, 120 h): < 100 nM; GI50 [4]: 1000 to 10000 nM; GI50 [5, 14]: < 100 nM

The next lines start with results.

IC50 (human PLK4; [6]) | IC50 (Aurora B) | GI50 [2, 8] | GI50 [3, 9] | GI50 [4, 10] | GI50 [5, 11] | SMILES | other results
< 100 nM | < 100 nM | < 100 nM | < 100 nM | < 100 nM | < 100 nM | COc1ccc2c(c1)[C@@]1(C[C@@H]1c1ccc3c(/C=C/c4csc(CN(C)C)c4)n[nH]c3c1)C(=O)N2 (racemic) [Example A181, (1R*,2S*)-2-(3-((E)-2-(5-((dimethylamino)methyl)thiophen-3-yl)vinyl)-1H-indazol-6-yl)-5′-methoxyspiro[cyclopropane-1,3′-indolin]-2′-one 2,2,2-trifluoro acetate] | GI50 [1, 7]: 100 to 1000 nM
< 100 nM | < 100 nM | < 100 nM | 1000 to 10000 nM | 1000 to 10000 nM | 100 to 1000 nM | COc1ccc2c(c1)[C@@]1(C[C@@H]1c1ccc3c(-c4ccc(N5CCNCC5)nc4)n[nH]c3c1)C(=O)N2 (racemic) [Example A21, 4-(5-(6-((1R*,2S*)-5′-Methoxy-2′-oxospiro[cyclopropane-1,3′-indoline]-2-yl)-1H-indazol-3-yl)pyridinium-2-yl)piperazine bis(2,2,2-trifluoroacetate)] | GI50 [1, 12]: > 10000 nM
< 100 nM | < 100 nM | < 100 nM | < 100 nM | < 100 nM | < 100 nM | COc1ccc2c(c1)[C@@]1(C[C@@H]1c1ccc3c(-c4ccc(N5CCC(N(C)C)CC5)cc4)n[nH]c3c1)C(=O)N2 (racemic) [Example A119, (1R*,2S*)-2-(3-(4-(4-(dimethlamino)piperidin-yl)phenyl)-1H-indazol-6-yl)-5′-methoxyspiro[cyclopropane-1,3′-indolin]-2′-one 2,2,2-trifluoroacetate] | GI50 [1, 7]: 100 to 1000 nM
< 100 nM |  | 1000 to 10000 nM | 1000 to 10000 nM | > 10000 nM | 1000 to 10000 nM | COc1ccc2c(c1)[C@@]1(C[C@@H]1c1ccc3c(-c4cccc(CCO)c4)n[nH]c3c1)C(=O)N2 (racemic) [Example A46, (1R*,2S*)-2-(3-(3-(2-hydroxethyl)phenyl)-1H-indazol-6-yl)-5′-methoxy spiro[cyclopropane-1,3′-indolin]-2′-one] | GI50 [1, 12]: > 10000 nM

From patent US8481525B2, “Kinase inhibitors and method of treating cancer with same” (University of Health Network, priority 2009, dated 2013)
